Measured values reported in patent publication US10758596B2, “Compositions and methods to prevent and treat biofilms” (ZIOLASE, LLC, priority 2011, dated 2020).
In brackets after ≈: the same amount, converted by molar mass. Where two headings read alike, the source gives them in different places.

Experiments:
Type in all cases: cell-based
S. aureus ATCC 25923 [1] = test: Bacterial cell viability (Resazurin assay), S. aureus ATCC 25923
Procedure: (§1) Various parameters that were evaluated in each part of the analysis include: 1) Biofilm mass formation (% inhibition—by Crystal Violet staining method); 2) Bacterial cell viability (% inhibition—by Resazurin assay); and 3) Bacterial cell growth (by Colony Counting—CFU/ml plating).
(§2) There now follows greater details about tests that show the effect of Trehalase in gram-positive bacteria (MRSA and MSSA S. aureus). […] It inhibited viability of bacterial cells in the biofilm (about 84%, about 81%, and about 63% correspondingly by Resazurin assay), and reduced the bacterial cell growth in the 24 hour biofilm (about 1.5 log by CFU/ml compared to the Control).
(§3) The experimental design for the first strain on the early biofilm included: • Strain: S. aureus ATCC25923 • Temperature: 35±2° C. • Incubation Conditions: Static • Time Points: 24 hours • Treatment: (added to well containing a suspension of S. aureus ATCC25923 ˜10^7 CFU/ml) • Solvent 1: 50% glycerol containing 1% Triton™ X-100 and 25 mM potassium phosphate, pH 6.5 • Solvent 2: 25 mM potassium phosphate, pH 6.5 • SIGMA Trehalase: 0.092 UI • Dialyzed Trehalase: 0.092 UI • Parameters Assessed: • Biofilm mass formation (staining with crystal violet 0.06%) • Cells viability (incubation with resazurin) • Cell growth by colony counting (CFU/mL)
as §3, with “preformed” for “early”, “Points: Preformed biofilm for 24 hours,” for “Points:”, “hours of further growth” for “hours”, “(CFU/mL) […]” for “(CFU/mL)”

S. aureus 3-Belgium = test: MIC, S. aureus 3-Belgium
S. aureus ATCC 25923 [2] = test: MIC by CLSI guidelines, S. aureus ATCC 25923
Source text: There is strong reproducibility of the data generated with S. aureus ATCC25923 (similar activity among different experiments).

S. aureus ATCC 25923 [3] = test: Biofilm mass formation (Crystal Violet staining), S. aureus ATCC 25923 biofilm; settings: antibiotic alone 1/4 MIC; 24 hour grown biofilm
Procedure: as §1, §2
as §3, with “(CFU/mL) […]” for “(CFU/mL)”

[4] = system: S. aureus strains (MSSA Oxford, MSSA ATCC 35556, MRSA ATCC 25923); test: MIC in broth (CLSI) in the presence and absence of Trehalase, selected S. aureus strains; settings: Trehalase 0.092 UI, 24 hours
Procedure: There was testing of Trehalase on Clinical Isolates (S. aureus strains: Oxford, ATCC35556, and ATCC 25923 as the reference strain) at a time-point: 24 hours of biofilm growth.
The MIC determination with selected S. aureus strains proceeded as a first step. The materials and methods included:
S. aureus strains: Oxford; ATCC35556 and ATCC25923 (as reference strain)
In vitro assay: MIC in broth (according to CLSI guidelines)
Antibiotic concentration: two-fold series dilution from 16 to 0.0078 μg/mL
Incubation: T 37° C.; static condition

S. aureus ATCC 25923 [5] = test: Bacterial cell growth by colony counting (CFU/mL), S. aureus ATCC 25923 biofilm and planktonic cells; settings: antibiotic alone 1/4 MIC; 24 hour grown biofilm
Procedure: as §1, §2
as §3, with “(CFU/mL) […]” for “(CFU/mL)”

S. aureus ATCC33591 [6] = test: Biofilm mass formation, S. aureus ATCC33591 24 hour grown biofilm; settings: Trehalase 0.092 UI/well, antibiotic 1/4 MIC; early (24 hour grown) biofilm
Procedure: as §1

S. aureus ATCC33591 [7] = test: MIC, S. aureus ATCC33591
Source text: Neither Gentamicin (GENT), nor Vancomycin (VAN) in sub-MICc doses (¼/MIC) triggered biofilm induction response.

P. aeruginosa PAO1 [8] = test: Bacterial cell viability (Resazurin assay), P. aeruginosa PAO1 biofilm
Procedure: as §1
The “U” corresponds to the International Units for the enzyme in each testing well. This dose was further used in subsequent experiments. […] In an old stage (72 hour of growth), the biofilm formation was still inhibited by about 50.0%. […]
as §3, with “second” for “first”, “preformed” for “early”, “P. aeruginosa PAO1” for “S. aureus ATCC25923”, “Points: Preformed biofilm for 24 hours,” for “Points:”, “hours of further growth” for “hours”

P. aeruginosa PAO1 [9] = test: Biofilm mass formation (Crystal Violet staining), P. aeruginosa PAO1 biofilm; settings: antibiotic alone 1/4 MIC added to 24 hour preformed biofilm
[10] = GENT/VAN experiment, Trehalase 0.092 UI/well, antibiotic 1/4 MIC, 24 hour grown biofilm

Compound | inhibition of biofilm cell viability (Resazurin assay) (S. aureus ATCC 25923 [1]; [10]) | MIC (S. aureus ATCC 25923 [2]) [µg/mL] | increased biofilm mass (biofilm induction response, BIR) compared to Negative Control (S. aureus ATCC 25923 [3]) | effect on cell growth (S. aureus ATCC 25923 [5]) | inhibition / reduction of biofilm mass formation compared to Control (S. aureus ATCC33591 [6]) | increase of biofilm mass formation (BIR) compared to Control level (P. aeruginosa PAO1 [9]) | other results
CN[C@H](CC(C)C)C(=O)N[C@H]1C(=O)N[C@@H](CC(N)=O)C(=O)N[C@H]2C(=O)N[C@H]3C(=O)N[C@H](C(=O)N[C@H](C(=O)O)c4cc(O)cc(O)c4-c4cc3ccc4O)[C@H](O)c3ccc(c(Cl)c3)Oc3cc2cc(c3O[C@@H]2O[C@H](CO)[C@@H](O)[C@H](O)[C@H]2O[C@H]2C[C@](C)(N)[C@H](O)[C@H](C)O2)Oc2ccc(cc2Cl)[C@H]1O [Vancomycin] | no effect | 2.0 (≈ 1.38 µM) | 1.8 fold | no effect | about 20% |  | MIC (S. aureus 3-Belgium; Staphylococcus aureus, 3BELGIUM): 2 µg/mL (≈ 1.38 µM); effect of addition of Trehalase on MIC [4]: No significant effect; MIC (S. aureus ATCC33591 [7]; Staphylococcus aureus, ATCC33591): 2 µg/mL (≈ 1.38 µM)
CC(C)(O/N=C(\C(=O)N[C@@H]1C(=O)N2C(C(=O)[O-])=C(C[n+]3ccccc3)CS[C@H]12)c1csc(N)n1)C(=O)O [Ceftazidime] |  |  |  |  |  | about 1.6 | inhibition of biofilm cell viability (Resazurin assay) (S. aureus ATCC 25923 [1]; Staphylococcus aureus, 24 h): about 13%; MIC (S. aureus ATCC 25923 [2]; Staphylococcus aureus, ATCC25923, read-out: MIC): 8 µg/mL (≈ 14.6 µM); inhibition of cell viability (Resazurin assay) (P. aeruginosa PAO1 [8]; Pseudomonas aeruginosa, 48 h): 25-50%
Gentamicin | no effect | 2 | two-fold | no effect | about 10% |  | MIC (S. aureus 3-Belgium): 32.0 µg/mL; MIC value reduction on addition of Trehalase ([4]; clinical isolates): up to 16 fold; MIC value reduction on addition of Trehalase ([4]; reference isolates): ≤ 33 fold; MIC (S. aureus ATCC33591 [7]): 2.0 µg/mL
NC[C@H]1O[C@H](O[C@H]2[C@H](O)[C@@H](O[C@H]3O[C@H](CO)[C@@H](O)[C@H](N)[C@H]3O)[C@H](N)C[C@@H]2N)[C@H](N)C[C@@H]1O [Tobramycin] |  |  |  |  |  | about 1.4 | inhibition of cell viability (Resazurin assay) (P. aeruginosa PAO1 [8]; added at beginning, antibiotic 1/4 MIC, 24 hour grown biofilm): about 25%; inhibition of cell viability (Resazurin assay) (P. aeruginosa PAO1 [8]; added at beginning, sub-MIC antibiotic, 48 hour grown biofilm): about 25%
